# In ChEMBL document CHEMBL6103557, “Novel Pyrrolidinone Urea Compounds as FPR2 Agonists for Treating Atherosclerosis and Heart Failure” (ACS Med Chem Lett, 2024):
# Target: T1, N-formyl peptide receptor 2 (Homo sapiens, UniProt P25090)
# T1 sequence (P25090 whole entry): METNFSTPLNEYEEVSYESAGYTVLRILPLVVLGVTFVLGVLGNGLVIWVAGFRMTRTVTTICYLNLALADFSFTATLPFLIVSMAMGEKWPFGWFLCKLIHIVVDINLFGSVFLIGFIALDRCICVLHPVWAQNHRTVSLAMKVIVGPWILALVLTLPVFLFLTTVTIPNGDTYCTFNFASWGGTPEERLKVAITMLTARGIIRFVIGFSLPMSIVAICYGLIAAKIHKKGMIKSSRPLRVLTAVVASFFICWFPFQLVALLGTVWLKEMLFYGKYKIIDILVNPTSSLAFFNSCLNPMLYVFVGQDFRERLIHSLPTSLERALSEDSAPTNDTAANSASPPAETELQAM
# Experiment: Agonist activity at human FPR2 expressed in forskolin/IBMX-treated CHO cells incubated for 30 mins by HTRF HiRange cAMP assay
# Type: functional, cell-based
row,Compound,EC50
1,CN(C)[C@H]1CN(c2ccc(N3CC[C@@H](NC(=O)Nc4ccc(Cl)cc4F)C3=O)c(F)c2F)C[C@H]1F,0.71 nM
2,O=C(Nc1ccc(Cl)cc1F)N[C@@H]1CCN(c2ccc(N3CCC(CO)C3)c(F)c2F)C1=O (stereo partly specified),0.74 nM
3,O=C(Nc1ccc(Cl)cc1F)N[C@@H]1C[C@@H](CO)N(c2ccc(N3CCC(C(F)F)C3)c(F)c2F)C1=O (stereo partly specified),0.7 nM

# Stronger by EC50, values ahead:
row,EC50,Compound
1,0.51 nM,CC(C)(O)C1CCCN1c1cc(F)c(N2CCC(NC(=O)Nc3ccc(Cl)cc3F)C2=O)c(F)c1 (stereo unspecified)
2,0.14 nM,O=C(Nc1ccc(Cl)cc1F)N[C@@H]1C[C@@H](CO)N(c2ccc(N3CCC(C(F)(F)F)C3)c(F)c2F)C1=O (stereo partly specified)
3,0.1 nM,CN(C)[C@@H]1CCN(c2ccc(N3CC[C@@H](NC(=O)Nc4ccc(C(F)(F)F)cc4F)C3=O)c(F)c2F)C1
